{"source": "paper PMC9792776", "about": "(Frontiers in Pharmacology, 2022)", "key": {"[1]": {"experiment": "Blood/plasma (B/P) ratio in healthy volunteer blood", "type": "in vitro ADME, human", "text": "Besides, the B/P ratio was obtained from healthy volunteer blood, however, in patients with CML, too many myeloid cells become granulocytes (red blood cells, platelets and several white blood cell types). So, red blood cell count might change B/P ratio in CML patients. […] Furthermore, the model simulation for liver cirrhosis patients was not validated by clinical data. We believe that further research is needed on this point."}, "CYP2C9 [2]": {"biological_target": "CYP2C9 (Homo sapiens, UniProt P11712)", "sequence (P11712 whole entry)": "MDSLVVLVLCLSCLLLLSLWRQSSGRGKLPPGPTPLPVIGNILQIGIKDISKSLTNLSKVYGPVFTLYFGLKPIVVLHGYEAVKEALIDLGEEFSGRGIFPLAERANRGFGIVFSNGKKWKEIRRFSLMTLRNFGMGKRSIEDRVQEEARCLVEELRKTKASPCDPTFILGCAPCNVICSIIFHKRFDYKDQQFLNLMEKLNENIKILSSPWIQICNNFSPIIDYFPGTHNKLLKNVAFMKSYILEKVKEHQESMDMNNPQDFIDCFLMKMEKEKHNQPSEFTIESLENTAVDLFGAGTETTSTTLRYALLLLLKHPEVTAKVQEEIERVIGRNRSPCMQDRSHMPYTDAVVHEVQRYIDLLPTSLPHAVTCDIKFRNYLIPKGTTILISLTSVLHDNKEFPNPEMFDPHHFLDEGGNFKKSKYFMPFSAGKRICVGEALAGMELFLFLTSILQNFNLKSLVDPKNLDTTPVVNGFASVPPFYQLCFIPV", "experiment": "CYP2C9 inhibition in human liver microsomes (diclofenac probe)", "description": "Ki=IC50/1+S/Km (1) Where IC50 signifies the half-maximum inhibitory concentration; S, the concentration of P450 marker substrate; and K m , the Michaelis constant within the Michaelis-Menten equation, which is in turn used to characterize substrate-enzyme binding kinetics.\nThe Michaelis constant (K m ) of CYP2C9 incubated with diclofenac was obtained from reported data ([Lee et al., 2014]). Methods used to calculate the Ki of CYP2C19 and CYP2C9 were similar."}, "CYP1A2": {"tested_on": "CYP1A2", "experiment": "CYP1A2 mRNA induction in cultured human hepatocytes", "type": "cell-based", "details": "in vitro studies"}, "[3]": {"experiment": "Human mass balance study with [14C]olverembatinib (NCT04126707)", "type": "in vivo", "quoted_text": "After a 3-day washout period, they were pretreated with 200 mg of oral itraconazole once daily for 4 days to inhibit CYP3A4 (Days 5–8). […] After a 3-day washout, subjects were pretreated with 600 mg of oral rifampicin once daily for 7 days to induce CYP3A4 (Days 5–11). […] Blood samples were collected immediately before and after drug administration at 0.5, 1, 2, 4, 6, 8, 12, 24, 48, 72, and 96 h."}, "[4]": {"experiment": "Phase 1 dose escalation study (renal clearance)", "details": "human, in vivo; 12 Chinese patients, 50 mg oral on Day 1"}, "OATP1B1": {"biological_target": "T1, OATP1B1 (Homo sapiens, UniProt Q9Y6L6)", "T1 sequence (Q9Y6L6 1-691)": "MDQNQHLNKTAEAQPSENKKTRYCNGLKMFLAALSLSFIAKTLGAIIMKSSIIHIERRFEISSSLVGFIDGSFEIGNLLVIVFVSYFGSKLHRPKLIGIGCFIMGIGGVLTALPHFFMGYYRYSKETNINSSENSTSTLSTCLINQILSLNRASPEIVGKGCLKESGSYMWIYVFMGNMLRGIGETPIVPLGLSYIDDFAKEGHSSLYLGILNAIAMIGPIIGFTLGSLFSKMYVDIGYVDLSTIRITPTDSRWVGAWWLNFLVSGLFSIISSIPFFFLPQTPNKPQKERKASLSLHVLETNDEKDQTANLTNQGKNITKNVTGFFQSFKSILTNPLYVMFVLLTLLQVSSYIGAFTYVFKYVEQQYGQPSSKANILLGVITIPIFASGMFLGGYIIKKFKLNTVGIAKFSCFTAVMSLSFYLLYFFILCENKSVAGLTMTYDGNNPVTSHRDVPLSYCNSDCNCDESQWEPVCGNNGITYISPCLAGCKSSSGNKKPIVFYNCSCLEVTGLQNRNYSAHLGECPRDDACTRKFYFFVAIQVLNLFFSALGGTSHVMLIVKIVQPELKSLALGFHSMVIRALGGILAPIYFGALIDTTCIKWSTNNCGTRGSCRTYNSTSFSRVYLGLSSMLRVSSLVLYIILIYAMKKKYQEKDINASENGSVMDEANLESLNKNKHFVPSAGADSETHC", "experiment": "Transporter substrate/inhibitor assessment, OATP1B1", "type": "in vitro ADME"}, "OCT2": {"biological_target": "T2, OCT2 (Homo sapiens, UniProt O15244)", "T2 sequence (O15244 1-555)": "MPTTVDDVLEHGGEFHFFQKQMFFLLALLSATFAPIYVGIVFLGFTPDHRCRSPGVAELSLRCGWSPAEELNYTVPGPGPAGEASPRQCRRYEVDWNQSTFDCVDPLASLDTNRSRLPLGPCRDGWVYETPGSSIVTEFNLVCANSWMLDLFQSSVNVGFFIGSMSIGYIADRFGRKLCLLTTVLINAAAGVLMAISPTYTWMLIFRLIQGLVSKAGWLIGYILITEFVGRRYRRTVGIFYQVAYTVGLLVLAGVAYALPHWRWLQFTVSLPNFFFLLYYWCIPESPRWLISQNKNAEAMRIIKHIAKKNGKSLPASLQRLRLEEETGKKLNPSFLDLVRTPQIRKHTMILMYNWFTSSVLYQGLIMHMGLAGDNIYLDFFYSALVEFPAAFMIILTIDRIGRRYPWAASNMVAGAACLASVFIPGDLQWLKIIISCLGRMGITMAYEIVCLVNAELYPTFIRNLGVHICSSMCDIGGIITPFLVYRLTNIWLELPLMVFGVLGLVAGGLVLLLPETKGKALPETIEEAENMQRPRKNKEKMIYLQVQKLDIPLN", "experiment": "Transporter substrate/inhibitor assessment, OCT2", "type": "in vitro ADME"}, "MATE1": {"biological_target": "MATE1 (Homo sapiens, UniProt Q96FL8)", "sequence (Q96FL8 whole entry, species assumed)": "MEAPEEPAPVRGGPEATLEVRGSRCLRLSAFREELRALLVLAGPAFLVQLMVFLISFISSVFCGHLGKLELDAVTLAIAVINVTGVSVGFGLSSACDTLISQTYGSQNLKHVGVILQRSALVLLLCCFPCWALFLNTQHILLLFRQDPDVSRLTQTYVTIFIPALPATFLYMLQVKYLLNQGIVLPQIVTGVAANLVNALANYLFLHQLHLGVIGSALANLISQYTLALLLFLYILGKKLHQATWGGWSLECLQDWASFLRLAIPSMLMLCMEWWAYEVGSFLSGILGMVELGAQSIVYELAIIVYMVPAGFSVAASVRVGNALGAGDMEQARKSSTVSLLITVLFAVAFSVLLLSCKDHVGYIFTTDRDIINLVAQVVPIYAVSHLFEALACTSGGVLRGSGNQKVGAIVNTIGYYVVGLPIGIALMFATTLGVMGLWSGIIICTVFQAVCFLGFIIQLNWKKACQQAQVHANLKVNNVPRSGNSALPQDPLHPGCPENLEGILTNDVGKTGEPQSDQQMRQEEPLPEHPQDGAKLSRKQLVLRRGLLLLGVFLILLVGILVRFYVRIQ", "experiment": "Transporter substrate/inhibitor assessment, MATE1", "type": "in vitro ADME"}, "MATE2K": {"biological_target": "MATE2K (Homo sapiens, UniProt Q86VL8)", "sequence (Q86VL8 1-566 isoform Q86VL8-3, species assumed)": "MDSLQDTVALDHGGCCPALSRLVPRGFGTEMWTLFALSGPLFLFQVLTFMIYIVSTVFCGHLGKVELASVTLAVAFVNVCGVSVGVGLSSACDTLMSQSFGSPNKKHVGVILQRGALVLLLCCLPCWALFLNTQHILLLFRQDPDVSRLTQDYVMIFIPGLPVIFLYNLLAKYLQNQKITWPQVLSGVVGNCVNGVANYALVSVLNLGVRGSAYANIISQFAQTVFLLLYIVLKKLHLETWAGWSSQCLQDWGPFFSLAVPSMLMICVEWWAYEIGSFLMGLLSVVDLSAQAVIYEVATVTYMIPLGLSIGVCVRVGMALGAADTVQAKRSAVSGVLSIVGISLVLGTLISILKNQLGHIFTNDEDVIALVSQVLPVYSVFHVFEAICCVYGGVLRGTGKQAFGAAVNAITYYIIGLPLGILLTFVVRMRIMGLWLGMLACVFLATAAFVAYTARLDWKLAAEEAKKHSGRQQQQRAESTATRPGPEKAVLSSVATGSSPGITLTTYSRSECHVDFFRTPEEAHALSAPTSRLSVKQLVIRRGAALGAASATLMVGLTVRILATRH", "experiment": "Transporter substrate/inhibitor assessment, MATE2K", "type": "in vitro ADME"}, "CYP2C9 [5]": {"tested_on": "CYP2C9"}, "T315I-mutated CML": {"tested_on": "T315I-mutated CML", "details": "40 mg QOD, 28-day cycles over 24 months, ref Jiang et al., 2022, cited from earlier work"}, "[6]": {"tested_on": "imatinib-resistant and imatinib-sensitive gastrointestinal stromal tumor cell lines", "set-up": "method as in Liu et al., 2019", "details": "imatinib-resistant and imatinib-sensitive GIST cell lines; ref Liu et al., 2019; cited from earlier work"}, "CYP2C9 [7]": {"tested_on": "CYP2C9", "experiment": "in vitro", "details": "human"}, "CYP3A4": {"biological_target": "CYP3A4 (Homo sapiens, UniProt P08684)", "sequence (P08684 whole entry)": "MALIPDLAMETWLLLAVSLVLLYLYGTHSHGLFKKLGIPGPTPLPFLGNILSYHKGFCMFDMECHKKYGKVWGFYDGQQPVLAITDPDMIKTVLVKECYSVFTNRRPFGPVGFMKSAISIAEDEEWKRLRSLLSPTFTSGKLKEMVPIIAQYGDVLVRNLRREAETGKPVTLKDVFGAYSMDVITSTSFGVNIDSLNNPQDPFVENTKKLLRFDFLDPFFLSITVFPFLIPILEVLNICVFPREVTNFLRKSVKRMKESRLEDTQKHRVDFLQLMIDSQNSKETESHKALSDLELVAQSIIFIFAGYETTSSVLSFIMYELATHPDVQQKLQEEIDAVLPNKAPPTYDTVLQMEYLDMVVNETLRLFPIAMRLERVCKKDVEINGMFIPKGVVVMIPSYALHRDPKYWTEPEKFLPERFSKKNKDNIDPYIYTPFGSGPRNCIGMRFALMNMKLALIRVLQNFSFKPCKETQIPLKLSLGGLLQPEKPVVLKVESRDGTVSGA", "experiment": "Intrinsic clearance in human recombinant CYP3A4"}, "[8]": {"details": "single radiolabeled 30 mg dose, healthy subjects"}}, "note": "Where two headings read alike, the source gives them in different places.", "data": [{"smiles": "Cc1ccc(C(=O)Nc2ccc(CN3CCN(C)CC3)c(C(F)(F)F)c2)cc1C#Cc1cnc2[nH]ncc2c1", "note": "[olverembatinib, Olverembatinib]", "values": [{"measurement": "mean conc (N=3)", "setting": "[1]; blood H", "value": 43.5}, {"measurement": "mean conc (N=3)", "setting": "[1]; blood L", "value": 0.395}, {"measurement": "mean conc (N=3)", "setting": "[1]; blood M", "value": 4.01}, {"measurement": "mean conc (N=3)", "setting": "[1]; plasma H", "value": 45.9}, {"measurement": "mean conc (N=3)", "setting": "[1]; plasma L", "value": 0.25}, {"measurement": "mean conc (N=3)", "setting": "[1]; plasma M", "value": 2.95}, {"measurement": "Ki", "setting": "CYP2C9 [2]", "value": 1140, "unit": "nM"}, {"measurement": "CYP2C9 inhibition, strength", "setting": "CYP2C9 [2]; microsomes", "value": "weak"}, {"measurement": "CYP1A2 induction, strength", "setting": "CYP1A2", "value": "weak"}, {"measurement": "AUC Obs.", "setting": "[3]; Chinese healthy volunteers, fasting, 26.85 mg SD", "value": 153, "unit": "h?ng/mL"}, {"measurement": "Cmax", "setting": "[3]; male, human, plasma, oral, Chinese healthy volunteers, fasting, 26.85 mg SD", "value": 8.09, "unit": "ng/mL"}, {"measurement": "Tmax", "setting": "[3]; male, human, plasma, oral, Chinese healthy volunteers, fasting, 26.85 mg SD, read-out: Tmax Obs. (median)", "value": 6, "unit": "h"}, {"measurement": "cleared drug unchanged in feces", "setting": "[3]; [8]", "value": "About 23.95%"}, {"measurement": "eliminated as the parent drug in urine", "setting": "[3]; [8]", "value": 0.02, "unit": "%"}, {"measurement": "dose recovered in urine", "setting": "[3]; single radiolabeled 30 mg dose, healthy subjects, within 96 h", "value": 1.57, "unit": "%"}, {"measurement": "dose recovered in feces", "setting": "[3]; single radiolabeled 30 mg dose, healthy subjects, within 216 h", "value": 87.68, "unit": "%"}, {"measurement": "CL renal", "setting": "[4]", "value": 2.2, "unit": "mL/min"}, {"measurement": "substrate or inhibitor of OATP1B1", "setting": "OATP1B1", "value": "neither a substrate nor inhibitor"}, {"measurement": "substrate or inhibitor of OCT2", "setting": "OCT2", "value": "neither a substrate nor inhibitor"}, {"measurement": "substrate or inhibitor of MATE1", "setting": "MATE1", "value": "neither a substrate nor inhibitor"}, {"measurement": "substrate or inhibitor of MATE2K", "setting": "MATE2K", "value": "neither a substrate nor inhibitor"}, {"measurement": "CYP2C9 induction, strength", "setting": "CYP2C9 [5]; hepatocytes", "value": "weak"}, {"measurement": "EC50", "setting": "CYP2C9 [5]; human", "value": 323, "unit": "nM"}, {"measurement": "major hematologic response (MaHR), patients", "setting": "T315I-mutated CML; CML-AP, n = 37 without MaHR at baseline", "value": 78.4, "unit": "%"}, {"measurement": "major cytogenetic response (MCyR), patients", "setting": "T315I-mutated CML; CML-CP, n = 121 without MCyR at baseline", "value": 79.3, "unit": "%"}, {"measurement": "antiproliferative activity compared with ponatinib", "setting": "[6]", "value": "equivalent or more potent antiproliferative activity"}, {"measurement": "EC50", "setting": "CYP2C9 [7]; EC50", "value": 584, "unit": "nM"}, {"measurement": "EC50", "setting": "CYP2C9 [7]; IndC50 CYP2C9 (Mean EC50)", "value": 454, "unit": "nM"}, {"measurement": "CLint CYP3A4", "setting": "CYP3A4", "value": 0.200, "unit": "µL/min/pmol CYP"}]}]}
